From patent publication US7763615B2, “Ecteinascidin analogs for use as antitumour agents” (priority 2001, dated 2010)
Where two headings read alike, the source gives them in different places.

Experiments:
CYP3A4 = CYP3A4 (Homo sapiens, UniProt P08684); conditions: 30 min, 10 µM
[1] = system: L8, normal rat skeletal muscle cells; conditions: 24 h
[2] = system: H9c2 (2-1), normal rat cardiac muscle cells; conditions: 24 h
Method: (§2) In order to assess the cytotoxicity of the drugs to normal cells, we used 96 well plates plated at a density of 5000 cells per well (except for the FDC-P1 which were plated at 12,000 cells per well) with normal cell lines (ATCC, Table 1) maintained as per the directions of the ATCC: AML-12, normal mouse liver cells; NRK-52E, normal rat kidney cells; L8, normal rat skeletal muscle cells; FDC-P1, normal mouse myelogeous stem cells; and H9c2 (2-1), normal rat cardiac muscle cells. The cells in each plate were permitted to settle overnight before adding the test drug.
(§3) To each well (100 μl medium) 10 μl of drug in media was added at varying concentrations (1×10-10-0.01 mg/ml final concentration) and further incubated overnight at 37° C. with 5% CO2. After 24 h the following assays were performed. All experiments were repeated at least 3 times and were assayed in duplicate.
(§4) MTS assay (CellTiter 96 aqueous) was performed according to the manufacturer's (Promega) directions (for all cell types). Cell viability (mitochondrial activity) is determined via enzymatic conversion of the formazan substrate.

SK-OV3 = experiment: Inhibition of cells growth by colorimetric assay (SRB), SK-OV3; type: cell-based
Outline: (§1)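 Absorbance at 490 nm of sulphorhodamine B bound by TCA-fixed cells gives the growth readout after 48 h continuous exposure to test samples (10 to 10^−8 μg/ml). Cells were seeded at 5×10^3 per well in RPMI 1640/10% FBS and allowed 18 h to attach first.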

H-MEC-1 = experiment: Inhibition of cells growth by colorimetric assay (SRB), H-MEC-1; type: cell-based; conditions: for CC50: Homo sapiens
Outline: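 For 48 hours, cells seeded at 5×10^3 per well were kept in contact with samples spanning 10 to 10^−8 μg/ml after an 18-hour attachment period. Viable biomass was then estimated colorimetrically with sulphorhodamine B at 490 nm.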

physchem = conditions: pH 7.4, log D n-Octanol-Dulbecco's PBS pH 7.4
[3] = s9, 60 min, 1 μM
Method: The metabolic stability was determined used human liver S9 homogenate that including both microsomal and cytosolic enzyme activities. The test compound was diluted in methanol (0.625%) and acetonitrile (0.625%) at the concentration 1 μM and incubated in the human liver pool (protein=1 mg/mL) during 60 min at 37° C. Peak areas corresponding to all analytes (metabolic products) were determined by HPLC-MS/MS. Areas were recorded and ratios of peak areas of analytes to that of internal standard for each analyte were determined. The ratio of precursor compound remaining after 60 minutes and the amount remaining at time zero, expressed as percent, are reported as metabolic stability. Higher values mean higher metabolic stability.

CYP2D6 = CYP2D6 (Homo sapiens, UniProt P10635); experiment: in vitro; conditions: CYP2D6 (% inhibition)
[4] = system: AML-12, normal mouse liver cells; conditions: 24 h
[5] = system: FDC-P1, normal mouse myelogeous stem cells; conditions: 24 h
Method: as §2, §3, §4

PANC-1 = experiment: cells; type: cell-based; conditions: for CC50: read-out: LC50
Outline: as §1

K562 = experiment: cells; type: cell-based; conditions: for CC50: read-out: LC50
Outline: as §1

DU145 = experiment: cells; type: cell-based; conditions: for CC50: read-out: LC50
Outline: as §1

LOVO = experiment: cells; type: cell-based; conditions: for CC50: read-out: LC50
Outline: as §1

HT29 = experiment: cells; type: cell-based
Outline: as §1

A549 = experiment: cells; type: cell-based; conditions: for GI50: read-out: GI50
Outline: as §1

MEL-28 = experiment: cells; type: cell-based; conditions: for CC50: read-out: LC50
Outline: as §1

LNCAP = experiment: cells; type: cell-based
Outline: as §1

IGROV-ET = experiment: cells; type: cell-based; conditions: IGROV-ET; for CC50: read-out: LC50
Outline: as §1

SK-BR3 = experiment: cells; type: cell-based; conditions: for CC50: read-out: LC50
Outline: as §1

IGROV = experiment: cells; type: cell-based
Outline: as §1

LOVO-DOX = experiment: cells; type: cell-based; conditions: for GI50 / TGI: LOVO-DOX
Outline: as §1

(HEPG2) = conditions: human, 24 h, 30 μM
Method: The toxic potential of compounds was investigated in vitro using primary human hepatocytes (HEPG2). The compounds were tested at 30 μM in duplicate with a final DMSO concentration of 1%. After incubation during 24 h at 37° C. the cell viability was determined by the conversion of oxided alarmarBlue (resazurin) to reduced alarmarBlue (resorufin). Chlorpromazine was used as reference compound. Results are expressed as a percent of inhibition of control values.

[6] = system: NRK-52E, normal rat kidney cells; conditions: 24 h
B16 melanoma = conditions: mice, U.S. Pat. No. 5,149,804; cited from earlier work
Lewis lung carcinoma = conditions: mice, U.S. Pat. No. 5,149,804; cited from earlier work
P388 lymphoma = conditions: mice, U.S. Pat. No. 5,149,804; cited from earlier work
[7] = H-MEC-1, 48 hours exposure, SRB
[8] = Homo sapiens, PANC-1, 48 h, PANC-1, 48 hours exposure, SRB
[9] = Homo sapiens, DU-145, 48 h, DU145, 48 hours exposure, SRB
[10] = Homo sapiens, LNCaP, 48 h, 48 hours exposure, SRB
[11] = Homo sapiens, 48 h, 48 hours exposure, SRB

CYP3A4, sequence (P08684 whole entry): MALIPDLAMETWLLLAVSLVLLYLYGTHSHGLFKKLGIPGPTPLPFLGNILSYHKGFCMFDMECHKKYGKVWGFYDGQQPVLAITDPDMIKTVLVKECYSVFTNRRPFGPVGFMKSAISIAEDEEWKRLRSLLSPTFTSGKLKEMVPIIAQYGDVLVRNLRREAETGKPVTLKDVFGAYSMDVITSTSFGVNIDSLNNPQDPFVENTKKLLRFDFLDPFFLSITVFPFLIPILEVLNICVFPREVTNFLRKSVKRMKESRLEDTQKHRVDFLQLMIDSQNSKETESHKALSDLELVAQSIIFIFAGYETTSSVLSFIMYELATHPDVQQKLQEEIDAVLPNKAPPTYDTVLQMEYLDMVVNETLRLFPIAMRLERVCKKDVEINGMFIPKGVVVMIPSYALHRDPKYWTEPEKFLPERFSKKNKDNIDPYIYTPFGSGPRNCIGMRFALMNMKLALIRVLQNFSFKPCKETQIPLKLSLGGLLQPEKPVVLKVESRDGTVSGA
CYP2D6, sequence (P10635 whole entry): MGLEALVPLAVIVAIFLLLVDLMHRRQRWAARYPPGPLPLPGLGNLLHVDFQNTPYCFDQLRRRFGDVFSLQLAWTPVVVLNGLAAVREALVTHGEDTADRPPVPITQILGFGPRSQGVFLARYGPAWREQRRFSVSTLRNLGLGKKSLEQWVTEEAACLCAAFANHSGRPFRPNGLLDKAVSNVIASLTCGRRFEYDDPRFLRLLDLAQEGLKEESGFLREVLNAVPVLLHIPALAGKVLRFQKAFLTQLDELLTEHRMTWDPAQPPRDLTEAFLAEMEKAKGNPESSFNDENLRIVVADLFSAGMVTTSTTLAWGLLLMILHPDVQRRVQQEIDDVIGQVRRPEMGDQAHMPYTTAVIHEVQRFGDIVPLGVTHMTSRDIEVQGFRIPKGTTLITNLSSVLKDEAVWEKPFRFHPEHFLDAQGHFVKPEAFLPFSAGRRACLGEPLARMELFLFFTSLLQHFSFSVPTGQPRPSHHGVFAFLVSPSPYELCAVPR

With `COc1c(C)cc2c(c1O)[C@@H]1C3[C@@H]4SC[C@]5(NC(C)Cc6c5[nH]c5ccc(F)cc65)C(=O)COC[C@@H](c5c6c(c(C)c(OC(C)=O)c54)OCO6)N3[C@@H](O)[C@H](C2)N1C` (some centres unmarked) [Compound 41] the “CYP3A4 (% inhibition)” value (CYP3A4) was 22 % inhibition, the Skeletal [1] was 2.39E−07 and the Heart [2] was 3.49E−08. The GI50 (SK-OV3; Homo sapiens, SK-OV-3, 48 h, SK-OV3, 48 hours exposure, SRB) was 3.85 nM, the CC50 (SK-OV3; Homo sapiens, SK-OV-3, 48 h, read-out: LC50, SK-OV3, 48 hours exposure, SRB) was 12700 nM and the TGI (SK-OV3; SK-OV3, 48 hours exposure, SRB) was 9.82E−09 Molar. For the same molecule, the GI50 (H-MEC-1; [7]) was 4.68 nM, the TGI (H-MEC-1; [7]) was 4.08E−08 Molar and the CC50 (H-MEC-1; HMEC-1, 48 h, read-out: LC50, H-MEC-1, 48 hours exposure, SRB) was 12700 nM. The logD at 60 min (physchem) was > 4.5, the “Human Liver S9 Metabolic Stability (% remaining)” value [3] was 7 % remaining and the inhibition at 450 min, 10 µM (CYP2D6) was 16%. The “Solubility Dulbecco's PBS pH 7.4” value was <1 est μM, the Liver [4] was 6.30E−08 and the Myelo [5] was 1.39E−07. The GI50 (PANC-1; [8]) was 10.8 nM, the IC (TGI) (PANC-1; [8]) was 48.9 nM and the CC50 (PANC-1; PANC-1, 48 hours exposure, SRB) was 506 nM. It also gave a GI50 (K562; K562, 48 hours exposure, SRB) of 0.11 nM, a TGI (K562; K562, 48 hours exposure, SRB) of 2.19E−09 Molar and a CC50 (K562; K562, 48 hours exposure, SRB) of 5.57 nM. It also gave a GI50 (DU145; [9]) of 3.49 nM, an IC (TGI) (DU145; [9]) of 8.37 nM and a CC50 (DU145; DU145, 48 hours exposure, SRB) of 9900 nM. It also gave an IC (TGI) (LOVO; Homo sapiens, LoVo, 48 h, 48 hours exposure, SRB) of 24.4 nM, a GI50 (LOVO; LOVO, 48 hours exposure, SRB) of 4.42 nM and a CC50 (LOVO; LOVO, 48 hours exposure, SRB) of 410 nM. The GI50 (HT29; HT29, 48 hours exposure, SRB) was 5.66 nM, the TGI (HT29; HT29, 48 hours exposure, SRB) was 6.07E−08 Molar and the CC50 (HT29; Homo sapiens, HT-29, 48 h, read-out: LC50, HT29, 48 hours exposure, SRB) was 12700 nM. The GI50 (A549; Homo sapiens, A549, 48 h, A549, 48 hours exposure, SRB) was 19.8 nM, the IC (TGI) (A549; Homo sapiens, A549, 48 h, A549, 48 hours exposure, SRB, read-out: TGI) was 46.8 nM and the CC50 (A549; Homo sapiens, A549, 48 h, read-out: LC50, A549, 48 hours exposure, SRB) was 110 nM. The GI50 (MEL-28; MEL-28, 48 hours exposure, SRB) was 6.72 nM, the TGI (MEL-28; MEL-28, 48 hours exposure, SRB) was 2.66E−08 Molar and the CC50 (MEL-28; MEL-28, 48 hours exposure, SRB) was 102 nM. The GI50 (LNCAP; [10]) was 2.62 nM, the IC (TGI) (LNCAP; [10]) was 5.17 nM and the CC50 (LNCAP; Homo sapiens, LNCaP, 48 h, read-out: LC50, LNCAP, 48 hours exposure, SRB) was 10.2 nM. It also gave a GI50 (IGROV-ET; 48 hours exposure, SRB) of 3.14 nM, a TGI (IGROV-ET; 48 hours exposure, SRB) of 2.00E−08 Molar and a CC50 (IGROV-ET; 48 hours exposure, SRB) of 3860 nM. It also gave a GI50 (SK-BR3; SK-BR3, 48 hours exposure, SRB) of 2.33 nM, a TGI (SK-BR3; SK-BR3, 48 hours exposure, SRB) of 6.86E−09 Molar and a CC50 (SK-BR3; SK-BR3, 48 hours exposure, SRB) of 36.3 nM. The GI50 (IGROV; [11]) was 1.94 nM, the IC (TGI) (IGROV; [11]) was 4.14 nM and the CC50 (IGROV; Homo sapiens, 48 h, read-out: LC50, IGROV, 48 hours exposure, SRB) was 8.86 nM. The GI50 (LOVO-DOX; [11]) was 30.5 nM, the CC50 (LOVO-DOX; Homo sapiens, 48 h, read-out: LC50, LOVO-DOX, 48 hours exposure, SRB) was 12700 nM and the TGI (LOVO-DOX; 48 hours exposure, SRB) was 9.99E−08 Molar. For the same molecule, the “Cell Viability (% inhibition)” value ((HEPG2)) was 16 % inhibition and the Kidney [6] was 1.89E−08.
In the case of `COc1c(C)cc2c(c1O)[C@@H]1C3[C@@H]4SC[C@]5(NC(C)Cc6c5[nH]c5ccccc65)C(=O)COC[C@@H](c5c6c(c(C)c(OC(C)=O)c54)OCO6)N3[C@@H](O)[C@H](C2)N1C` (some centres unmarked) [Compound 43], the “CYP3A4 (% inhibition)” value (CYP3A4) is reported as 15 % inhibition, the Skeletal [1] is reported as 1.60E−07 and the Heart [2] is reported as 9.42E−08. The GI50 (SK-OV3; SK-OV3) was 3.39 nM, the TGI (SK-OV3; SK-OV3) was 7.17E−09 and the CC50 (SK-OV3; read-out: LC50, SK-OV3) was 13 nM. The GI50 (H-MEC-1; H-MEC-1) was 11.8 nM, the TGI (H-MEC-1; H-MEC-1) was 1.77E−07 and the CC50 (H-MEC-1; HMEC-1, read-out: LC50, H-MEC-1) was 13000 nM. For the same molecule, the logD at 60 min (physchem) was > 4.5, the “Human Liver S9 Metabolic Stability (% remaining)” value [3] was 3 % remaining and the “Solubility Dulbecco's PBS pH 7.4” value was 5.85 μM. It also gave a Liver [4] of 7.57E−08, a Myelo [5] of 6.23E−08 and a GI50 (PANC-1; PANC-1) of 5.28 nM. For the same molecule, the TGI (PANC-1; PANC-1) was 1.15E−08, the CC50 (PANC-1; PANC-1) was 39 nM and the GI50 (K562; Homo sapiens, K562, K562) was 2.51 nM. For the same molecule, the TGI (K562; K562) was 4.88E−09, the CC50 (K562; K562) was 9.49 nM and the TGI (DU145; DU145) was 9.04E−09. The GI50 (DU145; Homo sapiens, DU-145, DU145) was 4.76 nM, the CC50 (DU145; DU145) was 13 nM and the GI50 (LOVO; LOVO) was 3.5 nM. For the same molecule, the TGI (LOVO; LOVO) was 8.32E−09, the CC50 (LOVO; LOVO) was 38.9 nM and the TGI (HT29; HT29) was 1.04E−07. The GI50 (HT29; Homo sapiens, HT-29, HT29) was 46.4 nM, the CC50 (HT29; Homo sapiens, HT-29, read-out: LC50, HT29) was 13000 nM and the TGI (A549; A549) was 1.08E−08. For the same molecule, the GI50 (A549; A549) was 5.12 nM, the CC50 (A549; read-out: LC50, A549) was 32.8 nM and the GI50 (MEL-28; MEL-28) was 308 nM. For the same molecule, the TGI (MEL-28; MEL-28) was 5.81E−07, the CC50 (MEL-28; MEL-28) was 1090 nM and the GI50 (LNCAP; LNCAP) was 2.02 nM. The TGI (LNCAP; LNCAP) was 3.76E−09, the CC50 (LNCAP; read-out: LC50, LNCAP) was 7 nM and the GI50 (IGROV-ET) was 9.1 nM. It also gave a TGI (IGROV-ET) of 2.35E−08, a CC50 (IGROV-ET) of 13000 nM and a GI50 (SK-BR3; SK-BR3) of 3.77 nM. It also gave a TGI (SK-BR3; SK-BR3) of 8.65E−09, a CC50 (SK-BR3; SK-BR3) of 41.1 nM and a TGI (IGROV) of 5.20E−09. For the same molecule, the GI50 (IGROV; Homo sapiens) was 2.73 nM, the CC50 (IGROV; read-out: LC50) was 9.88 nM and the CC50 (LOVO-DOX; Homo sapiens, read-out: LC50, LOVO-DOX) was 13000 nM. It also gave a GI50 (LOVO-DOX) of 39.8 nM, a TGI (LOVO-DOX) of 1.06E−07 and a Kidney [6] of 4.38E−08.
In the case of `COc1c(C)cc2c(c1O)[C@H]1N[C@@H](C2)[C@H](O)N2[C@H]1[C@@H]1SC[C@]3(NCCc4c3[nH]c3ccccc43)C(=O)OC[C@H]2c2c3c(c(C)c(OC(C)=O)c21)OCO3` [Ecteinascidin 722, ecteinascidin 722], the “in vivo protection against B16 melanoma” value (B16 melanoma) is listed as “protect mice in vivo at very low concentrations”, the “in vivo protection against Lewis lung carcinoma” value (Lewis lung carcinoma) is listed as “protect mice in vivo at very low concentrations” and the “in vivo protection against P388 lymphoma” value (P388 lymphoma) is listed as “protect mice in vivo at very low concentrations”.
